In the supplement of paper PMC10307832:

Experiments:
Experiment in all cases: relative viability (nuclei count vs DMSO), 5 days (fraction); higher = more cells survive
[1] = compound: CN(C)CC1=CC(=CC=C1)N=C(C2=CC=CC=C2)C3=C(NC4=C3C=CC(=C4)C(=O)N(C)C)O + C[C@@H](Oc1cc(-c2cnn(C3CCNCC3)c2)cnc1N)c1c(Cl)ccc(F)c1Cl [Crizotinib] (partner 1 µM)
Summary of the method: (§1)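 Nuclei were stained with Hoechst during a one-step fixation (final 0.05% Triton X-100, 1% formaldehyde, 1 ug/ml Hoechst) carried out 5 days after dosing, then counted on 4× images. The cells, lung cancer lines in 1536-well plates, had been dosed by pin tool the day after seeding with one drug alone or a fixed anchor-drug dose plus five library-drug doses (not always all listed) in √10 steps. Relative viability is the nuclei count in treated wells divided by that in vehicle wells, and each value is the median of duplicate plates.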

[2] = compound: CN(C)CC1=CC(=CC=C1)N=C(C2=CC=CC=C2)C3=C(NC4=C3C=CC(=C4)C(=O)N(C)C)O + O=C(CCCCCCC(=O)Nc1ccccc1)NO [Vorinostat] (partner 1 µM)
Summary of the method: as §1

[3] = compound: CN(C)CC1=CC(=CC=C1)N=C(C2=CC=CC=C2)C3=C(NC4=C3C=CC(=C4)C(=O)N(C)C)O + Cc1nc(Nc2ncc(C(=O)Nc3c(C)cccc3Cl)s2)cc(N2CCN(CCO)CC2)n1 [Dasatinib] (partner 0.075 µM)
Summary of the method: as §1

[4] = compound: CN(C)CC1=CC(=CC=C1)N=C(C2=CC=CC=C2)C3=C(NC4=C3C=CC(=C4)C(=O)N(C)C)O + CS(=O)(=O)N1CCN(Cc2cc3nc(-c4cccc5[nH]ncc45)nc(N4CCOCC4)c3s2)CC1 [Pictilisib] (partner 1 µM)
Summary of the method: as §1

Cell Line | relative viability ([1]; first compound 0.08 µM) | relative viability ([1]; first compound 0.253 µM) | relative viability ([1]; first compound 0.8 µM) | relative viability ([1]; first compound 2.53 µM) | relative viability ([1]; first compound 8 µM) | relative viability ([2]; first compound 0.08 µM) | relative viability ([2]; first compound 0.253 µM) | relative viability ([2]; first compound 0.8 µM) | relative viability ([2]; first compound 2.53 µM) | relative viability ([2]; first compound 8 µM) | relative viability ([3]; first compound 0.08 µM) | relative viability ([3]; first compound 0.253 µM) | relative viability ([3]; first compound 0.8 µM) | relative viability ([3]; first compound 2.53 µM) | relative viability ([3]; first compound 8 µM) | relative viability ([4]; first compound 0.08 µM) | relative viability ([4]; first compound 0.253 µM) | relative viability ([4]; first compound 0.8 µM) | relative viability ([4]; first compound 2.53 µM) | relative viability ([4]; first compound 8 µM)
EKVX | 0.842 | 0.921 | 1.03 | 0.879 | 0.981 | 0.778 | 0.726 | 0.648 | 0.858 | 0.773 | 0.523 | 0.465 | 0.56 | 0.535 | 0.573 | 0.425 | 0.452 | 0.384 | 0.431 | 0.574
EMC-BAC-2 | 0.725 | 0.772 | 0.804 | 0.753 | 0.681 | 0.476 | 0.548 | 0.463 | 0.463 | 0.653 | 0.358 | 0.388 | 0.308 | 0.348 | 0.318 | 0.545 | 0.528 | 0.552 | 0.572 | 0.569
EPLC-272H | 0.892 | 0.899 | 0.696 | 0.87 | 0.8 | 0.426 | 0.519 | 0.402 | 0.49 | 0.315 | 0.419 | 0.334 | 0.304 | 0.382 | 0.357 | 0.301 | 0.331 | 0.323 | 0.347 | 0.457
H3255 | 0.958 | 0.782 | 0.756 | 0.795 | 0.85 | 0.826 | 0.987 | – | 0.777 | 0.845 | 0.342 | 0.337 | 0.316 | 0.381 | 0.339 | 0.548 | 0.493 | 0.386 | 0.455 | 0.475
HARA | 1.02 | 1.02 | 1.05 | 1.02 | 1.11 | 0.6 | 0.528 | 0.433 | 0.715 | 0.487 | 0.227 | 0.306 | 0.231 | 0.258 | 0.241 | 0.401 | 0.472 | 0.405 | 0.466 | 0.412
HCC-15 | 0.778 | 0.832 | 0.882 | 0.889 | 0.888 | 0.875 | 0.821 | 0.787 | 0.868 | 0.89 | 0.613 | 0.602 | 0.652 | 0.643 | 0.662 | 0.739 | 0.768 | 0.877 | 0.819 | 0.774
HCC-44 | 0.801 | 0.752 | 0.785 | 0.727 | 0.89 | 1.18 | 1.09 | 1.2 | 1.1 | 1.29 | – | – | – | – | – | 0.645 | 0.715 | 0.585 | 0.532 | 0.584
HCC-78 | 0.327 | 0.282 | 0.297 | 0.34 | 0.372 | 0.455 | 0.668 | 0.379 | 0.464 | 0.427 | 0.329 | 0.521 | 0.353 | 0.366 | 0.405 | 0.197 | 0.24 | 0.24 | 0.206 | 0.224
